The record followed here is ChEMBL document CHEMBL2113921, “Open Source Malaria Deposition 1. http://malaria.ourexperiment.org” (2013).

Values after ≈ are worked out from the molar mass of the structure shown. Active and inactive are the calls of the source.

The nature of data set [1]: OSM: HEK293 cytotoxicity assay. Duplicate point single experiment at 120 uM. Avery Group, Griffith. Conditions: human, HEK293 cells; read-out: Inhibition. It counts as toxicity, cell-based.
Data set [2] relates to Plasmodium falciparum K1. The data set is described as follows: OSM: Inhibition of Plasmodium falciparum K1 growth. IC50 values determined from 21 point dose response curves. Avery Group Griffith. It counts as functional, organism-based.
Data set [3] deals with Plasmodium falciparum K1. Kind of data set: OSM: CSIR assay K1: Compounds were tested for inhibition of Plasmodium falciparum growth using a SYBR green I fluorescence based assay. In kind it is functional, organism-based.
The nature of data set [4]: OSM: Microsomal stability: 0.5 uM substrate, 0.4 mg/mL protein, NADPH cofactor. Analysed by LC/MS. Degradation half life (min). Conditions: human, microsomes. In kind it is ADME, Microsome.
Data set [5] relates to Plasmodium falciparum. The data set is described as follows: OSM: Inhibition of Plasmodium falciparum 3D7 growth using a SYBR green I fluorescence based assay. Dose response curves were generated comprising of 8 points using a 2-fold serial dilution for the maximum final concentration of 1000 nM. Ralph Group, Bio21. In kind it is functional, organism-based.
The test system of data set [6] is Plasmodium falciparum. The data set is described as follows: OSM: Late stage gametocytes. IC50 values determined from 21 point dose response curves. Avery Group Griffith. It counts as functional, organism-based. Conditions: Pfs16-GFP transgenic NF54.
A short description of data set [7]: OSM: Microsomal stability: 0.5 uM substrate, 0.4 mg/mL protein, NADPH cofactor. Analysed by LC/MS. Degradation rate classification. Conditions: human, microsomes. In kind it is ADME, Microsome.
Data set [8] deals with Plasmodium falciparum. The data set is described as follows: OSM: Inhibition of Plasmodium falciparum 3D7 growth. IC50 values determined from 21 point dose response curves. Avery Group Griffith. It counts as functional, organism-based.
Data set [9] can be described thus: OSM: Microsomal stability: 0.5 uM substrate, 0.4 mg/mL protein, NADPH cofactor). Analysed by LC/MS. In vitro CLint (uL/min/mg protein). In kind it is ADME, Microsome. Conditions: human, microsomes.
A short description of data set [10]: OSM: Kinetic solubility pH 6.5 isotonic phosphate buffer. It counts as ADME.
For data set [11], the system named is Plasmodium falciparum. The data set is described as follows: OSM: Inhibition of Plasmodium falciparum 3D7 growth using a SYBR green I fluorescence based assay. GSK Tres Cantos. It counts as functional, organism-based.
Data set [12] deals with Plasmodium falciparum. Kind of data set: OSM: Percent inhibition of Plasmodium falciparum 3D7 growth at 80 uM. Avery Group Griffith. It counts as functional.
Data set [13] is described as follows: OSM: Kinetic solubility pH 2 0.01 M HCl ug/mL. In kind it is ADME.
In a further data set the test system is Plasmodium berghei. The data set is described as follows: OSM: Mice are infected intravenously with parasitized red blood cells on day 0 (2 x 10^7 parasitized erythrocytes per ml). Experimental mice are generally treated at 4, 24, 48, and 72 hours post-infection with an oral dose of the compound (50 mg/kg, 4-day test by Peters) and are compared to an infected control group for reduction in parasitaemia on day 4 (96 hours post-infection) as a percentage. In kind it is functional, organism-based. Conditions: Mus musculus; Swiss; Plasma.

The subject of data set [14] is Plasmodium falciparum. Kind of data set: OSM: Percent inhibition of Plasmodium falciparum 3D7 growth at 100 uM. Avery Group Griffith. In kind it is functional.
Data set [15] in a line: OSM: HEK293 cytotoxicity assay. IC50 values determined from 21 point dose response curves. Avery Group Griffith. It counts as toxicity, cell-based. Conditions: human, HEK293 cells.
The test system of data set [16] is Plasmodium falciparum. The data set is described as follows: OSM: Percent inhibition of Plasmodium falciparum 3D7 growth at 40 uM. Avery Group Griffith. In kind it is functional.
The target of data set [17] is Voltage-gated inwardly rectifying potassium channel KCNH2 (Homo sapiens, UniProt Q12809). Kind of data set: OSM: hERG, IC50 uM (Essen Bioscience): IonWorks patch clamp electrophysiology. 8 point concentration-response curves were generated using 3-fold serial dilutions from the maximum final assay concentration of 33 uM. In kind it is functional.
Sequence of Voltage-gated inwardly rectifying potassium channel KCNH2 (Q12809 whole entry): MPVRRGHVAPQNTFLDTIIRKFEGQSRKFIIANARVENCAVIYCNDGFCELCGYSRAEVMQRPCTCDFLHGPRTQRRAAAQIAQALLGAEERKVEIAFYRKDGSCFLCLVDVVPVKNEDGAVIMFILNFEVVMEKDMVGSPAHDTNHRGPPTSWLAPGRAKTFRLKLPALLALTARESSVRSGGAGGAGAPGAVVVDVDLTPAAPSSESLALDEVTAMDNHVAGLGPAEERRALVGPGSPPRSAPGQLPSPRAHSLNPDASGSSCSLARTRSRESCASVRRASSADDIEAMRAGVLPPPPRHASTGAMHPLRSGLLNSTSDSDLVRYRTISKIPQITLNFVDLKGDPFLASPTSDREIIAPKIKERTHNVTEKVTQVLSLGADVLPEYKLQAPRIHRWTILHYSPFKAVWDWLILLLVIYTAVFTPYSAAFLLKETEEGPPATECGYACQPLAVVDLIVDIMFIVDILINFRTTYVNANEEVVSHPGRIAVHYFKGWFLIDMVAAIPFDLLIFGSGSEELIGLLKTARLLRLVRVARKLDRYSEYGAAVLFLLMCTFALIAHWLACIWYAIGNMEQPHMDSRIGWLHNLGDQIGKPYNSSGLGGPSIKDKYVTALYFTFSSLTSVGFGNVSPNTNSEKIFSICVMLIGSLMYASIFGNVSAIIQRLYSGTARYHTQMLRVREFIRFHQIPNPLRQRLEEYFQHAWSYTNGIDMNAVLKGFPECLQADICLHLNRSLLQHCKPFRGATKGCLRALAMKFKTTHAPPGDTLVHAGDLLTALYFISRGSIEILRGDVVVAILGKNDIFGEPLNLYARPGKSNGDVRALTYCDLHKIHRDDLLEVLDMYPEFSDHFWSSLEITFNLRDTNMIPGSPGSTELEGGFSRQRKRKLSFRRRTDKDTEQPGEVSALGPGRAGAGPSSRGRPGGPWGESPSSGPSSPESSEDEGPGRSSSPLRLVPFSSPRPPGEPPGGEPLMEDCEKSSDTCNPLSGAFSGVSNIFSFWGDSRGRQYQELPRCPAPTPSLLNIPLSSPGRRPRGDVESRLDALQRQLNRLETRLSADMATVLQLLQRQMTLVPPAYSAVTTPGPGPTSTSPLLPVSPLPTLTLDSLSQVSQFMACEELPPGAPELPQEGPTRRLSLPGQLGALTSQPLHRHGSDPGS
In data set [18] the test system is Plasmodium falciparum. The data set is described as follows: OSM: CSIR assay 3D7: Compounds were tested for inhibition of Plasmodium falciparum growth using a SYBR green I fluorescence based assay. It counts as functional, organism-based.

`CCN(CC)CCCC(C)Nc1ccnc2cc(Cl)ccc12` (stereo not drawn) [CHLOROQUINE]: the cytotoxicity at 120 µM in [1] came to 100%. Moreover, the IC50 with Plasmodium falciparum K1 [2] came out at 266 nM; in the data set with Plasmodium falciparum K1 [3] it was 235 nM.

Take `Cc1cc(/C=C2\S/C(=N\c3ccccc3)NC2=O)c(C)n1-c1ccc(C(F)(F)F)cc1`: the half-life at 0.5 µM in [4] is greater than 4.17 h. Besides, the IC50 turned out to be 205 nM with Plasmodium falciparum [5], 4 nM in the data set on Plasmodium falciparum [6], 2 nM in the data set on Plasmodium falciparum [8] and 29 nM in the data set with Plasmodium falciparum [11]. Besides, the Relative metabolic rate entry in data set [7] was “Low”. For the same compound, the intrinsic clearance (microsomal CLint) at 0.5 µM in [9] was less than 7 µL/min/mg. This compound yielded a solubility (kinetic) in [10] of 3 µg/mL (≈ 6.8 µM).

In the case of `Cc1cc(/C=C2\S/C(=N\c3ccccc3)NC2=O)c(C)n1-c1ccc(F)cc1`, the half-life at 0.5 µM in [4] was 1.53 h. Besides, the cytotoxicity at 120 µM in data set [1] came to 25%. Besides, the IC50 with Plasmodium falciparum K1 [2] worked out at 361 nM; with Plasmodium falciparum [8] it was 176 nM. Moreover, the Relative metabolic rate entry in data set [7] is listed as “Moderate”. Besides, the microsomal CLint at 0.5 µM in data set [9] stood at 15 µL/min/mg. The solubility (kinetic) in [10] was determined as 1 µg/mL (≈ 2.55 µM).

Turning to `Cc1c(NC(=O)CNC(=O)c2ccccc2)c(=O)n(-c2ccccc2)n1C`, the inhibition at 80 µM in the data set with Plasmodium falciparum [12] amounted to 0%. Moreover, the IC50 with Plasmodium falciparum [11] was greater than 5000 nM.

With `Cc1cc(C(=O)OCC(=O)Nc2c(C)n(C)n(-c3ccccc3)c2=O)c(C)n1-c1ccc(F)cc1`, in data set [4], the half-life at 0.5 µM is 0.483 h. For the same compound, the cytotoxicity at 120 µM in data set [1] came out at 20%. Also, the IC50 worked out at 152 nM in the data set on Plasmodium falciparum K1 [2], 345 nM with Plasmodium falciparum [8] and 245 nM in the data set with Plasmodium falciparum [11]. In data set [7], the Relative metabolic rate result is “Moderate”. Further, the kinetic solubility in data set [13] and in data set [10] was 12.5 µg/mL (≈ 26.2 µM) each time. In addition, the Reduced_parasitemia result in the data set on Plasmodium berghei was “inactive”. Also, the intrinsic metabolic clearance (microsomal CLint) at 0.5 µM in [9] was 60 µL/min/mg.

For the compound `O=C1N=C(Nc2ccccc2)S/C1=C\c1ccccc1`, the IC50 in the data set with Plasmodium falciparum [5] was greater than 1000 nM; in the data set on Plasmodium falciparum [11] it was greater than 5000 nM. For the same compound, testing at 100 µM in the data set on Plasmodium falciparum [14] gave an inhibition of 100%.

Take `CCc1nc(N)nc(N)c1-c1ccc(Cl)cc1` [PYRIMETHAMINE]: the IC50 was determined as 11900 nM with Plasmodium falciparum K1 [2], 13900 nM in [15] and 8.95 nM in the data set with Plasmodium falciparum [8].

For the compound `COc1ccc2nc3cc(Cl)ccc3c(Nc3cc(CN4CCCC4)c(O)c(CN4CCCC4)c3)c2n1` [PYRONARIDINE], the IC50 was 2960 nM with Plasmodium falciparum [6] and 3.2 nM with Plasmodium falciparum [8].

In turn, `Cc1cc(CN2CCCC2)c(C)n1-c1ccc(F)cc1` registered an inhibition at 40 µM with Plasmodium falciparum [16] of 96%.

The compound `Cc1cc(C(=O)CCC(N)=O)c(C)n1-c1ccc(F)cc1` displayed an inhibition at 40 µM in the data set on Plasmodium falciparum [16] of 61%.

Consider `Cc1cc(/C=C2\S/C(=N\c3ccccc3)N(C3CCCC3)C2=O)c(C)n1-c1ccc(C(F)(F)F)cc1`, for which the half-life at 0.5 µM in data set [4] amounted to 2.02 h. Further, the IC50 in the data set on Plasmodium falciparum [5] came to 520 nM; in the data set on Plasmodium falciparum [8], 34 nM; with Plasmodium falciparum [11], 276 nM. The Relative metabolic rate entry in data set [7] is given as “Moderate”. Also, the intrinsic metabolic clearance (microsomal CLint) at 0.5 µM in [9] amounted to 14 µL/min/mg. This compound returned a kinetic solubility in data set [10] of 5 µg/mL (≈ 9.81 µM).

On to `COc1ccc(-c2cc3ncnc(Oc4ccc(S(=O)(=O)N5CCOCC5)cc4)c3s2)cc1`, for which the inhibition at 40 µM with Plasmodium falciparum [16] stood at 80%.

Consider `Cc1cccc(-n2c(C)cc(C(=O)N(C)CC(=O)Nc3cc(C)on3)c2C)c1`, for which the inhibition at 40 µM in the data set on Plasmodium falciparum [16] was determined as 85%.

In the case of `Cc1cc(/C=C2\S/C(=N\c3ccccc3)NC2=O)c(C)n1-c1cc(C(F)(F)F)cc(C(F)(F)F)c1`, the half-life at 0.5 µM in [4] was greater than 4.17 h. For the same compound, the 50% inhibitory concentration (IC50) was determined as 5 nM in the data set on Plasmodium falciparum [5], 3 nM in the data set with Plasmodium falciparum [6], 1 nM in the data set on Plasmodium falciparum [8] and 7 nM in the data set with Plasmodium falciparum [11]. The Relative metabolic rate result in data set [7] is on record as “Low”. In addition, the microsomal CLint at 0.5 µM in data set [9] is less than 7 µL/min/mg. The compound also registered a kinetic solubility in data set [10] of 4 µg/mL (≈ 7.85 µM).

`CNC(=O)CN(C)C(=O)c1cc(C)n(-c2ccc(Br)cc2)c1C` showed an inhibition at 40 µM in the data set on Plasmodium falciparum [16] of 70%.

Consider `Cc1cc(C(=O)OCC(N)=O)c(C)n1-c1ccc(F)cc1`, for which, in data set [4], the half-life at 0.5 µM stood at 0.983 h. Also, the IC50 in [17] was greater than 33000 nM; in the data set with Plasmodium falciparum [18], 581 nM; with Plasmodium falciparum K1 [2], 375 nM; with Plasmodium falciparum K1 [3], 641 nM; in the data set on Plasmodium falciparum [8], 404 nM; in the data set with Plasmodium falciparum [11], 818 nM. In addition, the cytotoxicity at 120 µM in data set [1] was determined as 20%. In addition, the Relative metabolic rate entry in [7] was “Moderate”. Moreover, the kinetic solubility in data set [13] and in data set [10] was 50 µg/mL (≈ 172 µM) in each case. The Reduced_parasitemia result with Plasmodium berghei was “inactive”. Also, the intrinsic metabolic clearance (microsomal CLint) at 0.5 µM in [9] is 29 µL/min/mg.

With `COc1cc(C)c2c(Oc3cccc(C(F)(F)F)c3)c(OC)cc(NC(C)CCCN)c2n1` (stereo not drawn) [TAFENOQUINE], the IC50 in the data set with Plasmodium falciparum [6] is 2800 nM.

For `CC(=O)N(C1=NC(=O)/C(=C/c2cc(C)n(-c3ccc(F)cc3)c2C)S1)c1ccccc1`, the cytotoxicity at 120 µM in data set [1] is 75%. Moreover, the IC50 in the data set with Plasmodium falciparum K1 [2] was found to be 66 nM; in the data set on Plasmodium falciparum [6], 28 nM; in the data set on Plasmodium falciparum [8], 47 nM; in the data set on Plasmodium falciparum [11], 47 nM. The Relative metabolic rate entry in [7] is “Rapid non-NADPH acetamide hydrolysis to OSM-S-10”.

In the data set with Plasmodium falciparum [12], `Cc1cc(C(=O)Nc2c(C)n(C)n(-c3ccccc3)c2=O)c(C)n1-c1ccc(F)cc1` returned an inhibition at 80 µM of 100%.

`CC[C@H](C)[C@H](NC(=O)[C@H]([C@@H](C)CC)N(C)C(C)=O)C(=O)N[C@H](C(=O)N[C@@H](CC(C)C)C(=O)[C@@]1(C)CO1)[C@@H](C)O` [EPOXOMYCIN]: the half-inhibitory concentration (IC50) in the data set on Plasmodium falciparum K1 [2] is 2.8 nM; in the data set with Plasmodium falciparum [6] it was 0.3 nM; in data set [15], 33.6 nM; in the data set on Plasmodium falciparum [8], 4.2 nM.

On to `Cc1cc(/C=C2\S/C(=N\c3ccccc3)N(c3ccccc3)C2=O)c(C)n1-c1cccc(F)c1`, for which the results for the IC50 with Plasmodium falciparum [18] and in the data set with Plasmodium falciparum K1 [3] were 3200 nM and greater than 5000 nM, respectively.

For the compound `Cc1cc(C(=O)NCC(N)=O)c(C)n1-c1ccc(F)cc1`, the IC50 is greater than 1000 nM with Plasmodium falciparum [5] and greater than 5000 nM in the data set on Plasmodium falciparum [11]. In the data set on Plasmodium falciparum [12], this compound gave an inhibition at 80 µM of 25%.

Regarding `Cc1cc(/C=C2\SC(=Nc3ccccc3)NC2=O)c(C)n1-c1ccccc1`, the IC50 is 11 nM with Plasmodium falciparum [5], greater than 33000 nM in [17], 26 nM in the data set with Plasmodium falciparum [8] and 36 nM with Plasmodium falciparum [11]. The Reduced_parasitemia entry in the data set on Plasmodium berghei is “inactive”.

The term IC50 denotes the concentration that inhibits the measured activity by half. Read a high IC50 as weaker potency in that assay. In general, half-life refers to the time needed for the level to fall by half in the phase considered. One may read the microsomal CLint as the capacity of the preparation to metabolise the compound, expressed as a volume cleared per time. Usually solubility (kinetic) stands for solubility judged after dilution from a stock solution rather than from solid. By inhibition is commonly meant how much of the control response was suppressed. A lower inhibition goes with a response near the control.
